Test results as given in patent US20210155671A1 (priority 2019, published 2021).

Experiments:
HBL-1 = type: cell-based
Daudi = type: cell-based
SU-DHL-4 = type: cell-based
Raji = type: cell-based
[1] = tested on: Burkitt's lymphoma (ST-486) cells; type: cell-based; conditions: 72 hours
Experimental: The cytotoxicity of Molecule 001 in combination with lenalidomide was also tested in Burkitt's lymphoma (ST-486) cells. The cells were incubated with Molecule 001 only, lenalidomide only, or a combination of Molecule 001 and lenalidomide. Cell viability was measured 72 hours after treatment using the Promega® Cell TiterGlo® assay (FIG. 19E).

lymphoma (Daudi) cells = type: cell-based
Experimental: The cytotoxicity of Molecule 001 in combination with lenalidomide was also tested in vitro, in lymphoma (Daudi) cells. […] Following this, Molecule 001 was added and viability was measured after an additional 3 days, using the Promega® Cell Titer-Gb® assay (FIG. 19C).

CD20 = CD20 (Homo sapiens, UniProt P11836); conditions: at 37° C.; cited from earlier work
Sequence of CD20 (P11836 whole entry): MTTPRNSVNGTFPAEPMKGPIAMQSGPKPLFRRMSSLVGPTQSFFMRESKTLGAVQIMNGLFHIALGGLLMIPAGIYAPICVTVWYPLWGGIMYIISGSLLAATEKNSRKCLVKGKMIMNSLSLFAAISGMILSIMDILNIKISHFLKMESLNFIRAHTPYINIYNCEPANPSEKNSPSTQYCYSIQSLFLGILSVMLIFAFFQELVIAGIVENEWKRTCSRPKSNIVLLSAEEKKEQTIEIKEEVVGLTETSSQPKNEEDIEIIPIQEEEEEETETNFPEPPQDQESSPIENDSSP

## Cn1c(CCCC(=O)O)nc2cc(N(CCCl)CCCl)ccc21 [Bendamustine]
HBL-1
  In vitro responses to Molecule 001 in combination with chemotherapy: Synergistic
Daudi
  In vitro responses to Molecule 001 in combination with chemotherapy: Synergistic
SU-DHL-4
  In vitro responses to Molecule 001 in combination with chemotherapy: Synergistic

## N.N.[Cl][Pt][Cl] [Cisplatin]
Raji
  In vitro responses to Molecule 001 in combination with chemotherapy: Synergistic
Daudi
  In vitro responses to Molecule 001 in combination with chemotherapy: Mixed
SU-DHL-4
  In vitro responses to Molecule 001 in combination with chemotherapy: Mixed

## COc1cccc2c1C(=O)c1c(O)c3c(c(O)c1C2=O)C[C@@](O)(C(=O)CO)C[C@@H]3O[C@H]1C[C@H](N)[C@H](O)[C@H](C)O1 [Doxorubicin]
Raji
  In vitro responses to Molecule 001 in combination with chemotherapy: Synergistic
HBL-1
  In vitro responses to Molecule 001 in combination with chemotherapy: Synergistic
Daudi
  In vitro responses to Molecule 001 in combination with chemotherapy: Mixed

## Nc1ccn([C@@H]2O[C@H](CO)[C@@H](O)C2(F)F)c(=O)n1 [Gemcitabine]
Raji
  In vitro responses to Molecule 001 in combination with chemotherapy: Synergistic

## CC[C@]1(O)C[C@H]2CN(CCc3c([nH]c4ccccc34)[C@@](C(=O)OC)(c3cc4c(cc3OC)N(C=O)[C@H]3[C@@](O)(C(=O)OC)[C@H](OC(C)=O)[C@]5(CC)C=CCN6CC[C@]43[C@@H]65)C2)C1 [Vincristine]
Raji
  In vitro responses to Molecule 001 in combination with chemotherapy: Synergistic

## Nc1cccc2c1CN(C1CCC(=O)NC1=O)C2=O (stereo not shown) [lenalidomide]
[1]
  effect of lenalidomide on the activity of Molecule 001: no effect on the activity of Molecule 001
[1]; concentrations used in this assay
  effect of lenalidomide on cell viability: little effect on cell viability
Lymphoma (Daudi) cells; Daudi cells pre-treated with lenalidomide for 24 hours, then Molecule 001, viability after additional 3 days
  toxicity of Molecule 001 on cells pre-treated with lenalidomide (isobologram): synergistic toxicity
Lymphoma (Daudi) cells; versus either agent alone
  potency of the combination of Molecule 001 and LEN against lymphoma cells: significantly greater potency against lymphoma cells than either agent alone

## rituximab
CD20
  time to maximal cellular internalization: 16 to 18 h
